Laboratory results from US20150126465A1, “PROCESS FOR PRODUCING DERIVATIVES OF PYROSTEGIA VENUSTA, DERIVATIVES OF PYROSTEGIA VENUSTA, PHARMACEUTICAL COMPOSITIONS AND ITS USES” (priority 2011, published 2015).
Values after ≈ are worked out from the molar mass of the structure shown. Like-named read-outs stand apart in the source and are kept apart here.

Experiments:
Format in all cases: cell-based
[1] = tested on: Candida tropicalis USP B3; experiment: MIC by microdilution (CLSI M27-A2)
[2] = tested on: Candida tropicalis USP 1658; experiment: MIC by microdilution (CLSI M27-A2)
[3] = tested on: Candida parapsilosis ATCC 22019; experiment: MIC/CFM by microdilution (CLSI M27-A2)
[4] = tested on: Candida parapsilosis USP 1933; experiment: MIC/CFM by microdilution (CLSI M27-A2)
[5] = tested on: Candida albicans USP 1565; experiment: MIC by microdilution (CLSI M27-A2)
[6] = tested on: Candida guilhermondii USP; experiment: MIC/CFM by microdilution (CLSI M27-A2)
Candida krusei ATCC 6258 [7] = experiment: MIC/CFM by microdilution (CLSI M27-A2)
Candida krusei USP 2223 = experiment: MIC by microdilution (CLSI M27-A2)
[8] = tested on: Trichophyton rubrum ATCC MYA-3108; experiment: MIC by microdilution, filamentous fungi (CLSI M38-A); conditions: Table 11, Trichophyton rubrum ATCC MYA-3108
[9] = tested on: Candida albicans OF-M3-20; experiment: MIC/CFM by microdilution (CLSI M27-A2)
Procedure: (§1) Pure substances termed P1 and P2 previously dissolved in 20% DMSO, were diluted in RPMI medium, with final concentrations of 96 μg.mL-1. […] The same was also tested individually, diluted in RPMI medium, with initial concentration of 1 μL.mL-1. […] Cultures of Candida sp. were prepared and standardized in […] saline solution at 0.85%. For inoculums standardization, a spectrophotometer equipment was used, with wavelength at 530 nm and absorbance adjustment between 0.130 and 0.150, having as white the saline solution free of inoculum or any other contaminant, corresponding to concentrations of 10^6 CFU/mL. In this condition the inoculum “mother” was diluted 50 times and from this inoculum “child” the dilution was performed 20 times to obtain a standard inoculum in 10^3 cells per well. […] To aid in the growth view, were added to the wells dye 50 μL 2,3,5-triphenyltetrazolium chloride (TTC) at 5 mg.mL “1, being performed the readings after 4 hours of incubation. Prior to the addition of dye, aliquots of 96-well plate were transferred to Petri with Agar-Sabouraud Dextrose to determine the Minimum Fungicidal Concentration. Plates were incubated for 24 hours at 35° C.

[10] = tested on: Candida albicans OF-M7-19; experiment: MIC/CFM by microdilution (CLSI M27-A2)
Procedure: as §1

Candida albicans USP 1 = experiment: MIC/CFM by microdilution (CLSI M27-A2)
Procedure: as §1

[11] = tested on: Microsporum canis ATCC 32903; experiment: MIC by microdilution, filamentous fungi (CLSI M38-A); conditions: Table 13, Microsporum canis ATCC 32903, 7 days, 28° C.
Procedure: (§2) Pure substances termed P1 and P2 previously dissolved in 20% DMSO, were diluted in RPMI medium, with final concentrations of 96 μg.mL-1. […] Cultures of filamentous fungi described below were inoculated in Agar-Batata Dextrose medium and inoculated for 7 days, at 28° C. Colonies of cultures inoculated for 7 days in an oven at 28° C. were shrouded with 0.85% saline solution, scraped and then transferred to conical tubes. After resting for 5 minutes, the supernatant was transferred to new conical tubes for subsequent quantification in spectrophotometer, at 530 nm, with the transmittance adjustment of 80-82% for A. niger and 70% for other microorganisms. After adjustment, there was a 1:50 dilution in RPM. The determination of Minimum Inhibitory Concentration was performed after 7 days, at 28° C. After the incubation period, aliquots of 96-well plates were transferred to Petri plates with Potato Dextrose Agar, to determine the Minimum Fungicidal Concentration. Plates were inoculated for more 7 days, at 28° C.

[12] = tested on: Phomopsis longicolla (soy isolate); experiment: as above; conditions: Table 13, Phomopsis longicolla- soy, 7 days, 28° C.
Procedure: as §2

[13] = tested on: Trichophyton menthagrophyton ATCC 9533; experiment: as above; conditions: Table 13, Trichophyton menthagrophyton ATCC 9533, 7 days, 28° C.
Procedure: as §2

[14] = tested on: Candida albicans ATCC 10231; experiment: Diffusion in Agar, halo of inhibition; parameters: unit not given here; conditions: 20 μL per hole, 48 hours at 37° C., controls 80 μg · mL^−1
Procedure: (§3) Cultures of yeasts described below were inoculated in Agar-Sabouraud Dextrose medium and inoculated for 24 hours, at 35° C. Cultures of Candida sp. were prepared and standardized in […] saline solution at 0.85%. For inoculum standardization a spectrophotometer equipment was used with wavelength at 530 nm and absorbance adjustment between 0.130 and 0.150, having as white the saline solution free of inoculum or any other contaminant, corresponding to concentrations of 10^6 CFU/mL. In Petri plates (150×15 mm), were distributed RPMI medium with 0.8% Agar. To these plates, it was added 1 mL of the microorganism suspension in the concentration of 10^6 CFU/mL. After inundation, the suspension excess was removed with the aid of a pipette. With the plate surface already dry, hole of approximately 6.0 mm were made, adding to each hole 20 μL of the samples and control. The plates were then incubated for 48 hours at 37° C., when halo of inhibitions were measured.

[15] = tested on: Candida guilhermondii USP; experiment: Diffusion in Agar, halo of inhibition; parameters: unit not given here; conditions: Candida guilhemondii USP; 20 μL per hole, 48 hours at 37° C.; controls 80 μg · mL^−1
Procedure: as §3

Candida krusei ATCC 6258 [16] = experiment: Diffusion in Agar, halo of inhibition; parameters: unit not given here; conditions: 20 μL per hole, 48 hours at 37° C., controls 80 μg · mL^−1
Procedure: as §3

[17] = tested on: Candida parapsilosis ATCC 22019; experiment: Diffusion in Agar, halo of inhibition; parameters: unit not given here; conditions: 20 μL per hole, 48 hours at 37° C., controls 80 μg · mL^−1
Procedure: as §3

[18] = tested on: Candida tropicalis USP B3; experiment: Diffusion in Agar, halo of inhibition; parameters: unit not given here; conditions: 20 μL per hole, 48 hours at 37° C., controls 80 μg · mL^−1
Procedure: as §3

[19] = tested on: Candida albicans ATCC 10231; experiment: MIC/CFM by microdilution (CLSI M27-A2); conditions: Candida albicans, ATCC10231, read-out: MIC
C. Albicans USP 2 = experiment: MIC/CFM against Candida sp. strains; conditions: Table 14, C. Albicans USP 2
Candida glabrata ATCC = experiment: MIC/CFM against Candida sp. strains; conditions: Nakaseomyces glabratus; Table 14, Candida glabrata ATCC

Nistatina
MIC ([1]; Table 11, C. Tropicalis USP B3): 6.25 µg/mL | MIC ([2]; Table 11, C. Tropicalis USP 1658): 6.25 µg/mL | MIC ([2]; Table 12, C. tropicalis USP 1658, 48 h, 35° C.): 6.125 µg/mL | MIC ([3]; Table 12, C. parapsilosis ATCC 22019, 48 h, 35° C.): 6.25 µg/mL | MIC ([4]; Table 11, C. parapsilosis USP 1933): 6.25 µg/mL | MIC ([4]; Table 12, C. parapsilosis USP 1933, 48 h, 35° C.): 12.5 µg/mL | MIC ([5]; Table 11, C. Albicans USP 1565): 6.25 µg/mL | MIC ([5]; Table 12, C. albicans USP 1565, 48 h, 35° C.): 6.25 µg/mL | MIC ([6]; Table 11, C. guilhermondii USP): 3.125 µg/mL | MIC ([6]; Table 12, C. guilhermondii USP, 48 h, 35° C.): 6.25 µg/mL | MIC (Candida krusei ATCC 6258 [7]; Table 11, C. krusei ATCC 6258): 6.25 µg/mL | MIC (Candida krusei ATCC 6258 [7]; Table 12, C. krusei ATCC 6258, 48 h, 35° C.): 6.25 µg/mL | MIC (Candida krusei USP 2223; Table 11, C. krusei ATCC 2223): 6.25 µg/mL | MIC (Candida krusei USP 2223; Table 12, C. krusei USP 2223, 48 h, 35° C.): 6.25 µg/mL | MIC [8]: 3.125 µg/mL | MIC ([9]; Table 12, C. albicans OF M3-20, 48 h, 35° C.): 12.5 µg/mL | MIC ([10]; Table 12, C. albicans OF M7-19, 48 h, 35° C.): 12.5 µg/mL | MIC (Candida albicans USP 1; Table 12, C. albicans USP 1, 48 h, 35° C.): 6.25 µg/mL | MIC [11]: 12.5 µg/mL | MIC [12]: 3.125 µg/mL | MIC [13]: 12.5 µg/mL | Halo of inhibition [14]: 1.5 | Halo of inhibition [15]: 1.1 | Halo of inhibition (Candida krusei ATCC 6258 [16]): 1.2 | Halo of inhibition [17]: 1.6 | Halo of inhibition [18]: 0

C[C@@H]1O[C@@H](O[C@@H]2[C@@H](O)[C@H](OCCc3ccc(O)c(O)c3)O[C@H](CO)[C@H]2OC(=O)/C=C/c2ccc(O)c(O)c2)[C@H](O)[C@H](O)[C@H]1O [Fraction P2, verbascoside]
MIC ([19]; Table 12, C. albicans ATCC 10231, 48 h, 35° C.): 3 µg/mL (≈ 4.8 µM) | MIC ([19]; Table 14, C. Albicans ATCC 10231): 1.5 µg/mL (≈ 2.4 µM) | MIC ([1]; Candida tropicalis, USPB3, Table 14, C. Tropicalis UPS B3, read-out: MIC): 1.5 µg/mL (≈ 2.4 µM) | MIC ([2]; Candida tropicalis, USP1658, Table 12, C. tropicalis USP 1658, 48 h, 35° C., read-out: MIC): 1.5 µg/mL (≈ 2.4 µM) | MIC ([3]; Lodderomyces parapsilosis, ATCC22019, Table 12, C. parapsilosis ATCC 22019, 48 h, 35° C., read-out: MIC): 0.375 µg/mL (≈ 0.6 µM) | MIC ([3]; Lodderomyces parapsilosis, ATCC22019, Table 14, C. parapsilosis ATCC 22019, read-out: MIC): 1.5 µg/mL (≈ 2.4 µM) | MIC ([4]; Lodderomyces parapsilosis, USP1933, Table 12, C. parapsilosis USP 1933, 48 h, 35° C., read-out: MIC): 0.75 µg/mL (≈ 1.2 µM) | MIC ([4]; Lodderomyces parapsilosis, USP1933, Table 14, C. parapsilosis USP 1933 ATCC, read-out: MIC): 1.5 µg/mL (≈ 2.4 µM) | MIC ([5]; Candida albicans, USP1565, Table 12, C. albicans USP 1565, 48 h, 35° C., read-out: MIC): 0.375 µg/mL (≈ 0.6 µM) | MIC ([6]; Candida, Table 12, C. guilhermondii USP, 48 h, 35° C., read-out: MIC): 0.375 µg/mL (≈ 0.6 µM) | MIC ([6]; Table 14, Candida guilhermondi USPATCC, read-out: MIC): 0.75 µg/mL (≈ 1.2 µM) | MIC (Candida krusei ATCC 6258 [7]; Pichia kudriavzevii, ATCC6258, Table 12, C. krusei ATCC 6258, 48 h, 35° C., read-out: MIC): 0.375 µg/mL (≈ 0.6 µM) | MIC (Candida krusei ATCC 6258 [7]; Pichia kudriavzevii, ATCC6258, Table 14, C. krusei ATCC, read-out: MIC): 1.5 µg/mL (≈ 2.4 µM) | MIC (Candida krusei USP 2223; Pichia kudriavzevii, USP2223, Table 12, C. krusei USP 2223, 48 h, 35° C., read-out: MIC): 0.75 µg/mL (≈ 1.2 µM) | MIC (Candida krusei USP 2223; Pichia kudriavzevii, USP2223, Table 14, C. krusei USP 2223, read-out: MIC): 1.5 µg/mL (≈ 2.4 µM) | MIC ([9]; Candida albicans, OFM320, Table 12, C. albicans OF M3-20, 48 h, 35° C., read-out: MIC): 0.375 µg/mL (≈ 0.6 µM) | MIC ([9]; Candida albicans, OFM320, Table 14, C. Albicans OF M3-20, read-out: MIC): 1.5 µg/mL (≈ 2.4 µM) | MIC ([10]; Candida albicans, OFM719, Table 12, C. albicans OF M7-19, 48 h, 35° C., read-out: MIC): 0.375 µg/mL (≈ 0.6 µM) | MIC ([10]; Candida albicans, OFM719, Table 14, C. Albicans OF M7-19, read-out: MIC): 0.75 µg/mL (≈ 1.2 µM) | MIC (Candida albicans USP 1; Candida albicans, USP1, Table 12, C. albicans USP 1, 48 h, 35° C., read-out: MIC): 0.375 µg/mL (≈ 0.6 µM) | MIC (Candida albicans USP 1; Candida albicans, USP1, Table 14, C. Albicans USP 1, read-out: MIC): 1.5 µg/mL (≈ 2.4 µM) | MIC ([11]; ATCC32903, 168 h, read-out: MIC): 12 µg/mL (≈ 19.2 µM) | MIC ([12]; Diaporthe longicolla, 168 h, read-out: MIC): 16 µg/mL (≈ 25.6 µM) | MIC ([13]; ATCC9533, 168 h, read-out: MIC): 48 µg/mL (≈ 76.9 µM) | MIC (C. Albicans USP 2): 1.5 µg/mL (≈ 2.4 µM) | MIC (Candida glabrata ATCC): 0.75 µg/mL (≈ 1.2 µM)
